In the supplement of paper PMC10307832:

Columns and labels:
Assay in all cases: relative viability (nuclei count vs DMSO), 5 days (fraction); higher = more cells survive
4EGI-1 + OSI-027 = compound: O=C(O)C(Cc1ccccc1[N+](=O)[O-])=NNc1nc(-c2ccc(Cl)c(Cl)c2)cs1 (mixture of isomers) [4EGI-1] + COc1cccc2cc(-c3nc([C@H]4CC[C@H](C(=O)O)CC4)n4ncnc(N)c34)[nH]c12 [OSI-027] (partner 0.5 µM)
How it was run: (§1)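 Five library-drug doses in √10 steps were combined with a fixed anchor-drug dose, or a single drug was given alone, by pin tool to lung cancer cell lines in 1536-well plates the day after seeding. Nuclei were stained and counted after 5 days. Relative viability is the nuclei count in treated wells over that in vehicle wells, taken as the median of duplicate plates.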

4EGI-1 + Linsitinib = compound: O=C(O)C(Cc1ccccc1[N+](=O)[O-])=NNc1nc(-c2ccc(Cl)c(Cl)c2)cs1 (mixture of isomers) [4EGI-1] + C[C@]1(O)C[C@@H](c2nc(-c3ccc4ccc(-c5ccccc5)nc4c3)c3c(N)nccn32)C1 [Linsitinib] (partner 1 µM)
How it was run: as §1

4EGI-1 + Alpelisib = compound: O=C(O)C(Cc1ccccc1[N+](=O)[O-])=NNc1nc(-c2ccc(Cl)c(Cl)c2)cs1 (mixture of isomers) [4EGI-1] + Cc1nc(NC(=O)N2CCC[C@H]2C(N)=O)sc1-c1ccnc(C(C)(C)C(F)(F)F)c1 [Alpelisib] (partner 2 µM)
How it was run: as §1

4EGI-1 + Vorinostat = compound: O=C(O)C(Cc1ccccc1[N+](=O)[O-])=NNc1nc(-c2ccc(Cl)c(Cl)c2)cs1 (mixture of isomers) [4EGI-1] + O=C(CCCCCCC(=O)Nc1ccccc1)NO [Vorinostat] (partner 1 µM)
How it was run: as §1

Row | Cell Line | relative viability (4EGI-1 + OSI-027; first compound 0.5 µM) | relative viability (4EGI-1 + OSI-027; first compound 1.581 µM) | relative viability (4EGI-1 + OSI-027; first compound 5 µM) | relative viability (4EGI-1 + OSI-027; first compound 15.81 µM) | relative viability (4EGI-1 + OSI-027; first compound 50 µM) | relative viability (4EGI-1 + Linsitinib; first compound 0.5 µM) | relative viability (4EGI-1 + Linsitinib; first compound 1.581 µM) | relative viability (4EGI-1 + Linsitinib; first compound 5 µM) | relative viability (4EGI-1 + Linsitinib; first compound 15.81 µM) | relative viability (4EGI-1 + Linsitinib; first compound 50 µM) | relative viability (4EGI-1 + Alpelisib; first compound 0.5 µM) | relative viability (4EGI-1 + Alpelisib; first compound 1.581 µM) | relative viability (4EGI-1 + Alpelisib; first compound 5 µM) | relative viability (4EGI-1 + Alpelisib; first compound 15.81 µM) | relative viability (4EGI-1 + Alpelisib; first compound 50 µM) | relative viability (4EGI-1 + Vorinostat; first compound 0.5 µM) | relative viability (4EGI-1 + Vorinostat; first compound 1.581 µM) | relative viability (4EGI-1 + Vorinostat; first compound 5 µM) | relative viability (4EGI-1 + Vorinostat; first compound 15.81 µM) | relative viability (4EGI-1 + Vorinostat; first compound 50 µM)
1 | NCI-H727 | 0.669 | 0.652 | 0.538 | 0.552 | 0.451 | 0.337 | 0.286 | 0.268 | 0.229 | 0.301 | 0.676 | 0.54 | 0.625 | 0.478 | 0.366 | 1.13 | 0.94 | 1.22 | 1.04 | 0.714
2 | NCI-H838 | 0.419 |  | 0.403 | 0.362 | 0.218 | 1.19 |  | 1.02 | 0.854 | 0.434 | 1.02 |  | 1.06 | 0.907 | 0.524 | 0.724 | 0.732 | 0.738 | 0.605 | 0.263
3 | NCI-H1355 | 0.397 | 0.354 | 0.384 | 0.291 | 0.264 | 0.927 | 0.831 | 0.714 | 0.611 | 0.614 | 0.876 | 0.79 | 0.772 | 0.477 | 0.504 | 0.698 | 0.586 | 0.662 | 0.595 | 0.514
4 | NCI-H1395 | 0.647 | 0.43 | 0.686 | 0.567 | 0.355 | 1.29 |  | 1.52 | 0.874 | 0.534 | 1.19 |  | 1.52 | 1.07 | 0.685 | 0.833 |  | 0.858 | 0.669 | 0.397
5 | NCI-H1437 | 0.945 | 0.853 | 0.886 | 0.743 | 0.256 | 1.16 | 1 | 0.919 | 0.241 | 0.152 | 1.13 | 0.865 | 0.84 | 0.845 | 0.153 | 0.975 | 0.805 | 0.776 | 0.418 | 0.206
6 | NCI-H1651 | 0.845 | 0.565 | 0.693 | 0.664 | 0.463 | 1.2 | 0.805 | 0.982 | 0.808 | 0.249 | 0.927 | 0.914 | 0.913 | 0.906 | 0.556 | 0.523 | 0.477 | 0.629 | 0.481 | 0.408
7 | NCI-H1666 | 0.841 | 0.805 | 0.948 | 0.606 | 0.433 | 0.804 | 0.771 | 0.778 | 0.583 | 0.291 | 1.08 | 1.07 | 1.15 | 0.403 | 0.212 | 0.997 | 1.12 | 0.949 | 0.992 | 0.604
8 | NCI-H1734 | 0.698 | 0.432 | 0.618 | 0.55 | 0.23 | 0.948 | 0.866 | 0.991 | 1 | 0.529 | 0.686 | 0.599 | 0.753 | 0.719 | 0.491 | 0.965 | 0.67 | 0.966 | 0.545 | 0.329
9 | NCI-H1755 | 0.791 | 0.663 | 0.693 | 0.713 | 0.487 | 0.966 | 0.99 | 0.958 | 0.932 | 0.572 | 0.956 | 1.03 | 0.88 | 0.851 | 0.445 | 0.818 | 0.749 | 0.891 | 0.853 | 0.626
10 | NCI-H1793 | 0.331 | 0.287 | 0.355 | 0.247 | 0.134 | 1 | 0.996 | 0.819 | 0.645 | 0.747 | 0.868 | 0.883 | 0.679 | 0.668 | 0.577 | 1.03 | 0.823 | 0.999 | 0.516 | 0.353
11 | NCI-H1915 | 0.623 | 0.448 | 0.625 | 0.617 | 0.287 | 1.12 | 0.779 | 1.06 | 1.07 | 0.861 | 1.09 | 0.808 | 0.982 | 1.07 | 0.695 | 0.536 | 0.36 | 0.599 | 0.542 | 0.387
12 | NCI-H1944 | 0.427 |  | 0.392 | 0.307 | 0.303 | 1.39 |  | 1.21 | 1.1 | 1.13 | 0.86 |  | 0.796 | 0.642 | 0.672 | 0.611 |  | 0.603 | 0.489 | 0.418
13 | NCI-H1975 | 0.837 | 0.665 | 0.792 | 0.74 | 0.391 | 0.902 | 0.941 | 1.01 | 1.01 | 0.698 | 0.673 | 0.81 | 0.702 | 0.627 | 0.469 | 0.79 | 0.679 | 0.754 | 0.7 | 0.357
14 | NCI-H1993 | 0.495 | 0.528 | 0.627 | 0.611 | 0.577 | 0.754 | 0.757 | 0.737 | 0.699 | 0.706 | 0.714 | 0.666 | 0.72 | 0.675 | 0.659 | 1.04 | 0.678 | 0.778 | 0.524 | 0.349
15 | NCI-H2009 | 0.765 | 0.651 | 0.768 | 0.657 | 0.161 | 1.33 | 1.23 | 1.29 | 1.07 | 0.885 | 1.16 | 1.14 | 1.25 | 1.07 | 0.585 | 0.798 | 0.701 | 0.822 | 0.736 | 0.375
